Reference: patent US8129398B2 (priority 2008, dated 2012)

Each molecule was assayed against T1, HIV-integrase (Human immunodeficiency virus type 1 group M subtype B, UniProt P12497) (assay: HIV-Integrase Inhibition Activity (SPA bead integration assay with P33 labeled target DNA)). Conditions: recombinant integrase, class symbols; read-out: in vitro activity.
T1 construct: Recombinant integrase (0.26 ng) was incubated with the beads
Type: biochemical
Method in brief: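 Biotinylated substrate DNA on streptavidin SPA beads loaded with recombinant integrase (90 min, 37° C), washed, then inhibitor plus 0.1 fmol P33-labeled target DNA added. Reaction stopped with 10 mM EDTA; integration measured as CPM by scintillation, giving IC50 ranks.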

Row | SMILES | IC50 [nM]
1 | Cc1cc(CNC(=O)c2nc3n(c(=O)c2O)CC2CCC3(NC(=O)C(C)(C)n3cc(C(=O)N4CCN(C)CC4)nn3)CC2)ccc1F [Example 288, 7,10-Ethanopyrimido[1,2-a]azepine-2-carboxamide, N-[(4-fluoro-3-methylphenyl)methyl]-4,6,7,8,9,10-hexahydro-3-hydroxy-10-[[2-methyl-2-[4-[(4-methyl-1-piperazinyl)carbonyl]-1H-1,2,3-triazol-1-yl]-1-oxopropyl]amino]-4-oxo-] | < 10
2 | COC[C@H]1CCCN1C(=O)C(=O)NC12CCC(CC1)Cn1c2nc(C(=O)NCc2ccc(F)cc2)c(O)c1=O [Example 88, N-(4-Fluorobenzyl)-3-hydroxy-10-((((2R)-2-(methoxymethyl)-1-pyrrolidinyl)(oxo)acetyl)amino)-4-oxo-4,6,7,8,9,10-hexahydro-7,10-ethanopyrimido[1,2-a]azepine-2-carboxamide] | < 10
3 | CN(C(=O)C(=O)N1CCCC1)C12CCC(CC1)Cn1c2nc(C(=O)NCc2ccc(F)cc2)c(O)c1=O [Example 153, N-(4-Fluorobenzyl)-3-hydroxy-10-(methyl(oxo(1-pyrrolidinyl)acetyl)amino)-4-oxo-4,6,7,8,9,10-hexahydro-7,10-ethanopyrimido[1,2-a]azepine-2-carboxamide] | < 10
4 | CN(C)C(=O)C(=O)N[C@H]1c2nc(C(=O)NCc3ccc(F)cc3)c(O)c(=O)n2C[C@H]2CC[C@]1(C)C2(C)C [Example 183, N′-((7S,10R,11R)-2-((4-Fluorobenzyl)carbamoyl)-3-hydroxy-10,12,12-trimethyl-4-oxo-6,7,8,9,10,11-hexahydro-4H-7,10-methanopyrimido[1,2-a]azocin-11-yl)-N,N-dimethylethanediamide] | 10 to 100
5 | O=C(NC12CCC(CC1)Cn1c2nc(C(=O)NCc2ccc(F)cc2)c(O)c1=O)C(=O)N1CCC(F)(F)CC1 [Example 85, 10-(((4,4-Difluoro-1-piperidinyl) (oxo)acetyl)amino)-N-(4-fluorobenzyl)-3-hydroxy-4-oxo-4,6,7,8,9,10-hexahydro-7,10-ethanopyrimido[1,2-a]azepine-2-carboxamide] | < 10
6 | CN(C)C(=O)C(=O)N(CCO)C12CCC(CC1)Cn1c2nc(C(=O)NCc2ccc(F)cc2)c(O)c1=O [Example 175, N-(2-((4-Fluorobenzyl)carbamoyl)-3-hydroxy-4-oxo-6,7,8,9-tetrahydro-7,10-ethanopyrimido[1,2-a]azepin-10(4H)-yl)-N-(2-hydroxyethyl)-N′,N′-dimethylethanediamide] | < 10
7 | O=C(NC12CCC(CC1)Cn1c2nc(C(=O)NCc2ccc(F)cc2)c(O)c1=O)c1ccccn1 [Example 26, N-(4-Fluorobenzyl)-3-hydroxy-4-oxo-10-((2-pyridinylcarbonyl)amino)-4,6,7,8,9,10-hexahydro-7,10-ethanopyrimido[1,2-a]azepine-2-carboxamide] | < 10
8 | C=C[C@H]1C[C@@]1(NC(C)=O)C(=O)NC12CCC(CC1)Cn1c2nc(C(=O)NCc2ccc(F)c(C)c2)c(O)c1=O [Example 300, 7,10-Ethanopyrimido[1,2-a]azepine-2-carboxamide, 10-[[[(1S,2R)-1-(acetylamino)-2-ethenylcyclopropyl]carbonyl]amino]-N-[(4-fluoro-3-methylphenyl)methyl]-4,6,7,8,9,10-hexahydro-3-hydroxy-4-oxo-] | < 10
9 | Cn1cncc1CN1CCN(C(=O)C(=O)NC23CCC(CC2)Cn2c3nc(C(=O)NCc3ccc(F)cc3)c(O)c2=O)CC1 [Example 136, N-(4-Fluorobenzyl)-3-hydroxy-10-(((4-((1-methyl-1H-imidazol-5-yl)methyl)-1-piperazinyl)(oxo)acetyl)amino)-4-oxo-4,6,7,8,9,10-hexahydro-7,10-ethanopyrimido[1,2-a]azepine-2-carboxamide] | < 10
